Assay results from patent publication US8952024B2, “Herbicidal pyrimidone derivatives” (E I du Pont de Nemours and Company, priority 2009, dated 2015).

Assays:
Experiment in all cases: Test B pre-/postemergence plant response
Format in all cases: in vivo
[1] = test system: downy bromegrass (Bromus tectorum)
Outline: (§1)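 Seeds were sown in loam soil/sand blend and treated preemergence with compound in non-phytotoxic solvent mixture containing surfactant; postemergence sprays, same formulation, went onto plants 2 to 18 cm (1- to 4-leaf stage) in peat-based planting medium. Greenhouse 13 to 15 days, then visual rating versus untreated controls, 0 (no effect) to 100 (complete control).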

[2] = test system: ragweed (common ragweed, Ambrosia elatior)
Outline: as §1

soybean (Glycine max) = test system: soybean (Glycine max)
Outline: as §1

[3] = test system: blackgrass (Alopecurus myosuroides)
Outline: as §1

corn (Zea mays) = test system: corn (Zea mays)
Outline: as §1

[4] = test system: giant foxtail (Setaria faberii)
Outline: as §1

[5] = test system: Italian ryegrass (Lolium multiflorum)
Outline: as §1

[6] = test system: johnsongrass (Sorghum halepense)
Outline: as §1

kochia (Kochia scoparia) = test system: kochia (Kochia scoparia)
Outline: as §1

[7] = test system: velvetleaf (Abutilon theophrasti)
Outline: as §1

[8] = test system: woolly cupgrass (Eriochloa villosa)
Outline: as §1

[9] = test system: pigweed (Amaranthus retroflexus)
Outline: as §1

[10] = test system: Surinam grass (Brachiaria decumbens)
Outline: as §1

[11] = 250 g ai/ha, Preemergence, 0 to 100 scale
[12] = Postemergence, 31 g ai/ha, scale 0 to 100 (0 no effect, 100 complete control)
[13] = Postemergence, 62 g ai/ha, scale 0 (no effect) to 100 (complete control), 13 to 15 days
[14] = Postemergence, 125 g ai/ha, visual rating after 13 to 15 days, scale 0 (no effect) to 100 (complete control)
[15] = Postemergence, 250 g ai/ha, scale 0 to 100
[16] = Preemergence, 31 g ai/ha, scale 0 to 100 (0 no effect, 100 complete control)
[17] = Preemergence, 62 g ai/ha, scale 0 to 100 (0 no effect, 100 complete control)
[18] = Preemergence, 125 g ai/ha, 0 to 100 scale

For “3-cyclohexyl-5-[(2-hydroxy-6-oxo-1-cyclohexen-1-yl)carbonyl]-2-phenyl-4(3H)-pyrimidinone [Compound 128]”, the “Plant response rating, Bromegrass, Downy” value [1, 11] was 5, the “Plant response rating, Bromegrass, Downy” value [1, 12] was 20 and the “Plant response rating, Bromegrass, Downy” value [1, 13] was 35. The “Plant response rating, Bromegrass, Downy” value [1, 14] was 45, the “Bromegrass, Downy plant response rating” value [1, 15] was 45 and the “Plant response rating, Bromegrass, Downy” value [1, 16] was 0. For the same substance, the “Plant response rating, Bromegrass, Downy” value [1, 17] was 0, the “Bromegrass, Downy plant response rating” value [1, 18] was 0 and the “Plant response rating, Ragweed” value [2, 11] was 100. The “Plant response rating, Ragweed” value [2, 12] was 100, the “Plant response rating, Ragweed” value [2, 13] was 100 and the “Plant response rating, Ragweed” value [2, 14] was 100. For the same substance, the “Ragweed plant response rating” value [2, 15] was 100, the “Plant response rating, Ragweed” value [2, 16] was 65 and the “Plant response rating, Ragweed” value [2, 17] was 100. The “Ragweed plant response rating” value [2, 18] was 100, the “Plant response rating, Soybean” value (soybean (Glycine max); [11]) was 95 and the “Plant response rating, Soybean” value (soybean (Glycine max); [12]) was 100. The “Plant response rating, Soybean” value (soybean (Glycine max); [13]) was 100, the “Plant response rating, Soybean” value (soybean (Glycine max); [14]) was 100 and the “Soybean plant response rating” value (soybean (Glycine max); [15]) was 100. For the same substance, the “Plant response rating, Soybean” value (soybean (Glycine max); [16]) was 25, the “Plant response rating, Soybean” value (soybean (Glycine max); [17]) was 45 and the “Soybean plant response rating” value (soybean (Glycine max); [18]) was 65. The “Plant response rating, Blackgrass” value [3, 11] was 60, the “Plant response rating, Blackgrass” value [3, 12] was 5 and the “Plant response rating, Blackgrass” value [3, 13] was 5. The “Plant response rating, Blackgrass” value [3, 14] was 40, the “Blackgrass plant response rating” value [3, 15] was 40 and the “Plant response rating, Blackgrass” value [3, 16] was 0. For the same substance, the “Plant response rating, Blackgrass” value [3, 17] was 5, the “Blackgrass plant response rating” value [3, 18] was 30 and the “Plant response rating, Corn” value (corn (Zea mays); [11]) was 35. The “Plant response rating, Corn” value (corn (Zea mays); [12]) was 70, the “Plant response rating, Corn” value (corn (Zea mays); [13]) was 75 and the “Plant response rating, Corn” value (corn (Zea mays); [14]) was 80. For the same substance, the “Corn plant response rating” value (corn (Zea mays); [15]) was 85, the “Plant response rating, Corn” value (corn (Zea mays); [16]) was 0 and the “Plant response rating, Corn” value (corn (Zea mays); [17]) was 0. The “Corn plant response rating” value (corn (Zea mays); [18]) was 0, the “Plant response rating, Foxtail, Giant” value [4, 11] was 100 and the “Plant response rating, Foxtail, Giant” value [4, 12] was 75. The “Plant response rating, Foxtail, Giant” value [4, 13] was 85, the “Plant response rating, Foxtail, Giant” value [4, 14] was 98 and the “Foxtail, Giant plant response rating” value [4, 15] was 100. For the same substance, the “Plant response rating, Foxtail, Giant” value [4, 16] was 0, the “Plant response rating, Foxtail, Giant” value [4, 17] was 35 and the “Foxtail, Giant plant response rating” value [4, 18] was 75. For the same substance, the “Plant response rating, Ryegrass, Italian” value [5, 11] was 0, the “Plant response rating, Ryegrass, Italian” value [5, 12] was 10 and the “Plant response rating, Ryegrass, Italian” value [5, 13] was 10. The “Plant response rating, Ryegrass, Italian” value [5, 14] was 40, the “Ryegrass, Italian plant response rating” value [5, 15] was 40 and the “Plant response rating, Ryegrass, Italian” value [5, 16] was 0. For the same substance, the “Plant response rating, Ryegrass, Italian” value [5, 17] was 0, the “Ryegrass, Italian plant response rating” value [5, 18] was 0 and the “Plant response rating, Johnsongrass” value [6, 11] was 98. For the same substance, the “Plant response rating, Johnsongrass” value [6, 12] was 65, the “Plant response rating, Johnsongrass” value [6, 13] was 70 and the “Plant response rating, Johnsongrass” value [6, 14] was 90. For the same substance, the “Johnsongrass plant response rating” value [6, 15] was 98, the “Plant response rating, Johnsongrass” value [6, 16] was 0 and the “Plant response rating, Johnsongrass” value [6, 17] was 55. For the same substance, the “Johnsongrass plant response rating” value [6, 18] was 85, the “Plant response rating, Kochia” value (kochia (Kochia scoparia); [11]) was 100 and the “Plant response rating, Kochia” value (kochia (Kochia scoparia); [12]) was 25. For the same substance, the “Plant response rating, Kochia” value (kochia (Kochia scoparia); [13]) was 25, the “Plant response rating, Kochia” value (kochia (Kochia scoparia); [14]) was 75 and the “Kochia plant response rating” value (kochia (Kochia scoparia); [15]) was 98. For the same substance, the “Plant response rating, Kochia” value (kochia (Kochia scoparia); [16]) was 15, the “Plant response rating, Kochia” value (kochia (Kochia scoparia); [17]) was 100 and the “Kochia plant response rating” value (kochia (Kochia scoparia); [18]) was 100. For the same substance, the “Plant response rating, Velvetleaf” value [7, 11] was 100, the “Plant response rating, Velvetleaf” value [7, 12] was 80 and the “Plant response rating, Velvetleaf” value [7, 13] was 95. For the same substance, the “Plant response rating, Velvetleaf” value [7, 14] was 100, the “Velvetleaf plant response rating” value [7, 15] was 100 and the “Plant response rating, Velvetleaf” value [7, 16] was 100. The “Plant response rating, Velvetleaf” value [7, 17] was 100, the “Velvetleaf plant response rating” value [7, 18] was 100 and the “Plant response rating, Cupgrass, Woolly” value [8, 11] was 75. The “Plant response rating, Cupgrass, Woolly” value [8, 12] was 55, the “Plant response rating, Cupgrass, Woolly” value [8, 13] was 75 and the “Plant response rating, Cupgrass, Woolly” value [8, 14] was 90. For the same substance, the “Cupgrass, Woolly plant response rating” value [8, 15] was 95, the “Plant response rating, Cupgrass, Woolly” value [8, 16] was 0 and the “Plant response rating, Cupgrass, Woolly” value [8, 17] was 0. For the same substance, the “Cupgrass, Woolly plant response rating” value [8, 18] was 15, the “Plant response rating, Pigweed” value [9, 11] was 100 and the “Plant response rating, Pigweed” value [9, 12] was 65. The “Plant response rating, Pigweed” value [9, 13] was 80, the “Plant response rating, Pigweed” value [9, 14] was 85 and the “Pigweed plant response rating” value [9, 15] was 98. The “Plant response rating, Pigweed” value [9, 16] was 100, the “Plant response rating, Pigweed” value [9, 17] was 100 and the “Pigweed plant response rating” value [9, 18] was 100. For the same substance, the “Plant response rating, Surinam Grass” value [10, 11] was 75, the “Plant response rating, Surinam Grass” value [10, 12] was 60 and the “Plant response rating, Surinam Grass” value [10, 13] was 70. For the same substance, the “Plant response rating, Surinam Grass” value [10, 14] was 85, the “Surinam Grass plant response rating” value [10, 15] was 85 and the “Plant response rating, Surinam Grass” value [10, 16] was 0. For the same substance, the “Plant response rating, Surinam Grass” value [10, 17] was 25 and the “Surinam Grass plant response rating” value [10, 18] was 35.
